# Legend:
# AF-Est2 [1] = target: T1, AF-Est2 (Archaeoglobus fulgidus, UniProt O28735); assay: phenol red pH-indicator assay at […] nm, Michaelis-Menten fit; type: biochemical; details: 1 mM HEPES pH 8.0; kcat is that at 70 °C (one KM printed for 70, 50 and 30 °C)
# T1 construct: gene AF_1537; full-length, no stop codon, C-terminal 6xHis tag (pET24d, plasmid pWUR365), E. coli BL21-CodonPlus(DE3)-RIPL; tag kept
# AF-Est2 [2] = target: T1, AF-Est2; assay: p-nitrophenol release at […] nm, microplate, Michaelis-Menten fit; type: biochemical; details: 50 mM Tris-HCl pH 7.5, 30 °C; enzyme carries co-purified CoA
# AF-Est2 [3] = target: T1, AF-Est2; assay: X-ray crystal structure, […] Å; type: binding; details: co-purified from expression host, not added; full occupancy; groove near active site, pantetheine in alcohol pocket
# T1 sequence (O28735 entry or part of it): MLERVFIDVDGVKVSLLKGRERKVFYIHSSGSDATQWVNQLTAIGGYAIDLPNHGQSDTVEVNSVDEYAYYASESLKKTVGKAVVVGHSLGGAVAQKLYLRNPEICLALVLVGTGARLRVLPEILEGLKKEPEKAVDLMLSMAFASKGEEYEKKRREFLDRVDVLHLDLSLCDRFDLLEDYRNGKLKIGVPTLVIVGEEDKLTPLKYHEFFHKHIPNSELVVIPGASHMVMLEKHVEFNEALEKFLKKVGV
Structure (SMILES),Km (AF-Est2 [2]) [µM],further results
COC(=O)c1ccc(C)cc1 [methyl p-toluate],,Km (AF-Est2 [1]): 1.5 ± 0.1 mM
"CCCC(=O)Oc1ccc([N+](=O)[O-])cc1 [C4, pNP-butyrate]",92 ± 3,
"CCCCC(=O)Oc1ccc([N+](=O)[O-])cc1 [C5, pNP-valerate]",19 ± 1,
"CC(=O)Oc1ccc([N+](=O)[O-])cc1 [C2, pNP-acetate]",620 ± 10,
"CCCCCCCC(=O)Oc1ccc([N+](=O)[O-])cc1 [C8, pNP-caprylate]",120 ± 10,
"CCC(=O)Oc1ccc([N+](=O)[O-])cc1 [C3, pNP-propionate]",254 ± 8,
CC(C)(COP(=O)(O)OP(=O)(O)OC[C@H]1O[C@@H](n2cnc3c(N)ncnc32)[C@H](O)[C@@H]1OP(=O)(O)O)[C@@H](O)C(=O)NCCC(=O)NCCS [CoA],,"X-ray crystal structure, 1.4 Å (AF-Est2 [3]): confirmed the full occupancy of this CoA ligand in the AF-Est2 structure"
